{"source": "patent US20090215669A1", "about": "“COMPOSITIONS AND METHODS FOR TREATMENT OF DIABETES” (DIA-B TECH LIMITED, priority 2005, published 2009)", "key": {"[1]": {"tested_on": "C2C12 mouse myotube cells", "assay": "Microphysiometry (extracellular acidification rate) in C2C12 cells", "assay_type": "cell-based", "procedure": "C2C12 mouse myotube cells were seeded onto supports and differentiated. The cells were then placed in a Cytosensor (Molecular Devices) in non-buffered pH sensitive RPMI 1640 media. Once the cells were equilibrated at 37° C. with RPMI 1640 media (zero control), ISF402, insulin or ZnCl2 at increasing concentrations were added for a duration of 20 minutes, for each treatment. The Cytosensor measured the changed in pH as a response of cells to the treatment.\nThe activity of the combination of insulin and ISF402 in insulin sensitisation was explored in C2C12 muscle cells using microphysiometry, a technique that measures extracellular acidification as an indicator of cell metabolism. An ISF402 concentration of 0.1 μM was used to test for sensitisation of insulin responsiveness as this concentration produces a sub-maximal (˜20%) response in C2C12 cells. In the presence of 0.1 μM ISF402, the cellular response to insulin was increased as shown by increasing extracellular acidification rate (ECAR) with increasing concentrations of insulin, particularly at low insulin concentrations (FIG. 3)."}, "[2]": {"assay": "Solubility of ISF402 at various pH and temperatures", "assay_type": "physicochemical", "details": "for solubility at 24 h: 25 mM ammonium bicarbonate buffer", "procedure": "Solid ISF402 was added to 50 μL aliquots of 25 mM ammonium bicarbonate buffer until no more solid dissolved. The total weight of the peptide added to each tube was noted and the pH of each solution was adjusted to approximately pH 8 by the addition of 1 M NaOH. Samples were incubated with constant shaking at either room temperature (23-25° C.) or 37° C. for 24 hours then centrifuged at 16000×g for 15 minutes. 2 μL aliquots of each supernatant were diluted with milliQ-H2O to an estimated concentration of 1 mg/mL. Samples were stored at −20° C. for later analysis by HPLC using UV detection (214 nm) to determine the exact concentration of ISF402. The pH of the remaining supernatant was measured. The pH was lowered by the addition of 2 μL of 5M HCl and tube contents were mixed and incubated under the two temperature conditions. The cycle of pH lowering, incubation and sampling was repeated until a pH of between 2 and 3 was achieved."}, "female Zucker fa/fa rats [3]": {"tested_on": "female Zucker fa/fa rats", "assay": "Intravenous injection of female Zucker fa/fa rats: blood glucose, serum insulin, C-peptide, triglyceride", "assay_type": "in vivo, rat", "details": "for Change in Serum Triglyceride levels compared to the 0 time point: ISF402 alone 4.5 mg/kg, insulin, insulin + ISF402 1.5 mg/kg, mean ± SEM (n = 5); for maximum reduction in blood glucose: 45 minutes after administration"}, "insulin multimer": {"target": "T1, insulin multimer (Bos taurus, UniProt P01317)", "T1 construct": "mixing insulin with ISF402 and separating molecular complexes by gel filtration chromatography", "T1 sequence (P01317 25-54 limits assumed)": "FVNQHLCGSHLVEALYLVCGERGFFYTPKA", "T1 sequence (P01317 85-105 limits assumed)": "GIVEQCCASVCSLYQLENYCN", "assay": "Gel filtration chromatography of insulin mixed with ISF402", "assay_type": "biochemical", "source_text": "The effect of ISF402 on the multimerisation of insulin was examined in vitro by mixing insulin with ISF402 and separating molecular complexes by gel filtration chromatography, which separates on the basis of size (FIG. 7)."}, "female Zucker fa/fa rats [4]": {"tested_on": "female Zucker fa/fa rats", "assay": "Oral ISF402 followed by intraperitoneal insulin tolerance test (IPITT) in female Zucker fa/fa rats", "assay_type": "in vivo, rat", "procedure": "Female Zucker fa/fa rats were purchased from Monash Animal Services (Monash University, Clayton, Australia). Rats were housed in the Biochemistry and Molecular Biology Animal House (Monash University, Victoria, Australia) and allowed to acclimatize for 7 days in an environmentally controlled room at 22° C. Rats were fed normal chow and water ad libitum. All experiments were performed according to Monash University Animal Care and Ethics Committee guidelines and approved by the Monash University Animal ethics committee. Rats of 16-18 weeks of age were fasted overnight with free access to water then anaesthetised with pentobarbitone (Nembutal, Phone Merieux, QLD, Australia) administered intraperitoneally (IP) at 35 mg/kg body weight. Blood glucose was monitored using Medisense glucometers (Abbott Laboratories, Abbott Park, Ill.) for one hour prior to administration of test substances. ISF402 was administered at 3 mg/kg by IP with 2 U/kg of bovine insulin (n=6) and controls were injected IP with insulin alone (n=8). Two experiments were performed where ISF402 was given orally. In the first experiment, controls were given saline orally by gavage (n=5) and the test group were given ISF402 orally at 15 mg/kg (n=5). After 15 minutes, insulin (2 U/kg) was injected IP. The procedure was repeated three days later with the control rats once again given saline and the treated rats given 30 mg/kg ISF402. A second experiment was performed on a separate group of rats where controls were given saline orally as before (n=5) and treated rats were given ISF402 orally at 30 mg/kg (n=5), followed 15 minutes later by IP injection of 2 U/kg insulin. For both experiments, after administration of peptide blood was collected from the tail vein and glucose measured immediately. Serum samples were also collected for later measurement of C-peptide and insulin using Linco Rat C-peptide and Insulin RIA kits according to the manufacturer's instructions (Linco Research Inc, St Charles, Mo.)."}, "male Zucker fa/fa rats": {"tested_on": "male Zucker fa/fa rats", "assay": "Intravenous injection of male Zucker fa/fa rats: blood glucose, serum insulin, C-peptide", "assay_type": "in vivo, rat", "details": "1 U/kg of bovine insulin iv", "procedure": "The Monash University Animal Ethics Committee approved all procedures performed on experimental animals. Zucker rats were purchased from the Monash University Central Animal Facility. Insulin and ISF401 were injected through the femoral vein while the rat was under anaesthesia (Pentobarbitone) and rats were humanely killed while still unconscious at the end of the procedure. The insulin concentration used for all in vivo experiments was 1 unit per kg of body weight. Blood was collected from the tail vein and glucose concentrations were measured using a Medisense glucometer. Insulin and C-peptide concentrations were measured in serum samples using a Linco Rat Insulin RIA kit according to the manufacturers instructions. Group sizes were between 5 and 8 rats per treatment.\nTo investigate sex differences in the insulin sensitizing effect of ISF402, age-matched male Zucker fa/fa rats were injected intravenously with ISF402 (1.5 mg/kg) and insulin as described above for female rats. […] In comparison, co-injection of ISF402 with the insulin led to a decrease in blood glucose 20 minutes after injection which remained low for a further 25 minutes (FIG. 13A). The greatest reduction in blood glucose was 0.98±0.31 mmol/L and was achieved 30 minutes after injection. […]"}, "female Zucker fa/fa rats [5]": {"tested_on": "female Zucker fa/fa rats", "assay": "Intraperitoneal injection of insulin with ISF402 in female Zucker fa/fa rats", "assay_type": "in vivo, rat", "details": "IP, 2 U/kg bovine insulin", "procedure": "Female Zucker fa/fa rats were purchased from Monash Animal Services (Monash University, Clayton, Australia). Rats were housed in the Biochemistry and Molecular Biology Animal House (Monash University, Victoria, Australia) and allowed to acclimatize for 7 days in an environmentally controlled room at 22° C. Rats were fed normal chow and water ad libitum. All experiments were performed according to Monash University Animal Care and Ethics Committee guidelines and approved by the Monash University Animal ethics committee.\nRats of 16-18 weeks of age were fasted overnight with free access to water then anaesthetised with pentobarbitone (Nembutal, Phone Merieux, QLD, Australia) administered intraperitoneally (IP) at 35 mg/kg body weight. Blood glucose was monitored using Medisense glucometers (Abbott Laboratories, Abbott Park, Ill.) for one hour prior to administration of test substances. ISF402 was administered at 3 mg/kg by IP with 2 U/kg of bovine insulin (n=6) and controls were injected IP with insulin alone (n=8). Two experiments were performed where ISF402 was given orally. In the first experiment, controls were given saline orally by gavage (n=5) and the test group were given ISF402 orally at 15 mg/kg (n=5). After 15 minutes, insulin (2 U/kg) was injected IP. […] For both experiments, after administration of peptide blood was collected from the tail vein and glucose measured immediately. […]"}, "[6]": {"details": "iv, ISF402 4.5 mg/kg without insulin"}, "[7]": {"details": "oral ISF402 followed by IP insulin injection"}}, "note": "Where two headings read alike, the source gives them in different places. Marks after values point to notes of the source that are not given here. Peptide text beside a SMILES is read from it.", "data": [{"compound": "CC(C)[C@H](N)C(=O)N[C@@H](Cc1c[nH]cn1)C(=O)N[C@H](C(=O)N[C@@H](CC(=O)O)C(N)=O)[C@@H](C)O", "note": "[ISF402, Val-His-Thr-Asp-NH2] (H-VHTD-NH2)", "values": [{"measurement": "response in C2C12 cells (sub-maximal, extracellular acidification)", "setting": "[1]; 0.1 μM ISF402", "value": "~20", "unit": "%"}, {"measurement": "cellular response to insulin (extracellular acidification rate, ECAR)", "setting": "[1]; in the presence of 0.1 μM ISF402, increasing insulin concentrations", "value": "increased"}, {"measurement": "solubility at 24 h", "setting": "[2]; 37° C., pH 6, read-out: minimum solubility", "value": 179, "unit": "mg/mL"}, {"measurement": "solubility at 24 h", "setting": "[2]; both at room temperature and 37° C., below pH 4.6 and above pH 6.9, read-out: solubility", "value": "300 to 450", "unit": "mg/mL"}, {"measurement": "solubility at 24 h", "setting": "[2]; room temperature, pH 6.3, read-out: lowest solubility", "value": 165, "unit": "mg/mL"}, {"measurement": "pH of minimum solubility", "setting": "[2]; both temperatures", "value": "5.7-6.3"}, {"measurement": "Change in Serum Triglyceride levels compared to the 0 time point", "setting": "female Zucker fa/fa rats [3]; Time 0 minutes", "value": 0, "unit": "mg/dL"}, {"measurement": "Change in Serum Triglyceride levels compared to the 0 time point", "setting": "female Zucker fa/fa rats [3]; Time 10 minutes", "value": "+11.3 ± 5.4 mg/dl"}, {"measurement": "Change in Serum Triglyceride levels compared to the 0 time point", "setting": "female Zucker fa/fa rats [3]; Time 45 minutes", "value": "−16 ± 7.2^a mg/dl"}, {"measurement": "Change in Serum Triglyceride levels compared to the 0 time point", "setting": "female Zucker fa/fa rats [3]; Time 60 minutes", "value": "+44.9 ± 42.7 mg/dl"}, {"measurement": "maximum reduction in blood glucose", "setting": "female Zucker fa/fa rats [3]; iv, ISF402 4.5 mg/kg without exogenous insulin", "value": "1.02 ± 0.27", "unit": "mmol/L"}, {"measurement": "circulating insulin", "setting": "female Zucker fa/fa rats [3]; [6]", "value": "no observed increase in circulating insulin"}, {"measurement": "serum C-peptide concentrations", "setting": "female Zucker fa/fa rats [3]; [6]", "value": "reduced"}, {"measurement": "optimum ISF402 dose", "setting": "female Zucker fa/fa rats [3]; iv, co-injected with insulin 1 U/kg", "value": 1.5, "unit": "mg/kg"}, {"measurement": "optimal intravenous dose of ISF402", "setting": "female Zucker fa/fa rats [3]; iv, without exogenous insulin", "value": 4.5, "unit": "mg/kg"}, {"measurement": "glucose lowering response across the range of ISF402 doses", "setting": "female Zucker fa/fa rats [3]; iv, 0.5-4.5 mg/kg with insulin, 3-10 mg/kg alone, AUC over 60 minutes (FIG. 2A)", "value": "dose dependent and bell shaped"}, {"measurement": "magnitude of the maximal reduction in blood glucose compared to controls", "setting": "female Zucker fa/fa rats [3]; iv, ISF402 4.5 mg/kg vs saline, ISF402 1.5 mg/kg with insulin vs insulin alone", "value": 0.95, "unit": "mmol/L"}, {"measurement": "effect on the size of the insulin multimer", "setting": "insulin multimer", "value": "reduces the size of the insulin multimer"}, {"measurement": "elution volume of insulin when mixed with ISF402", "setting": "insulin multimer; insulin without pre-mixing eluted at 14-15 mL", "value": "16 to 17", "unit": "mL"}, {"measurement": "blood glucose in IPITT compared to control", "setting": "female Zucker fa/fa rats [4]; ISF402 15 mg/kg oral, insulin 2 U/kg IP 15 minutes later", "value": "did not reach statistical significance"}, {"measurement": "blood glucose in IPITT compared to the insulin-injected control group", "setting": "female Zucker fa/fa rats [4]; ISF402 30 mg/kg oral to the same rats three days after 15 mg/kg", "value": "significant reduction in blood glucose"}, {"measurement": "time of greatest decrease in blood glucose after administration", "setting": "female Zucker fa/fa rats [4]; oral 30 mg/kg ISF402, IPITT", "value": 2, "unit": "h"}, {"measurement": "C-peptide concentrations", "setting": "female Zucker fa/fa rats [4]; [7]", "value": "did not change"}, {"measurement": "circulating insulin concentrations", "setting": "female Zucker fa/fa rats [4]; [7]", "value": "did not change"}, {"measurement": "blood glucose in IPITT compared to control", "setting": "female Zucker fa/fa rats [4]; single dose of 30 mg/kg ISF402 oral by gavage", "value": "significant decrease in blood glucose"}]}, {"compound": "Insulin: Insulin (Bovine pancreas) containing 0.6% zinc, purchased from Sigma", "values": [{"measurement": "Change in Serum Triglyceride levels compared to the 0 time point", "setting": "female Zucker fa/fa rats [3]; Time 0 minutes", "value": 0, "unit": "mg/dL"}, {"measurement": "Change in Serum Triglyceride levels compared to the 0 time point", "setting": "female Zucker fa/fa rats [3]; Time 10 minutes", "value": "+39.6 ± 15.1 mg/dl"}, {"measurement": "Change in Serum Triglyceride levels compared to the 0 time point", "setting": "female Zucker fa/fa rats [3]; Time 45 minutes", "value": "+21.1 ± 23.9 mg/dl"}, {"measurement": "Change in Serum Triglyceride levels compared to the 0 time point", "setting": "female Zucker fa/fa rats [3]; Time 60 minutes", "value": "+33.3 ± 19.8 mg/dl"}, {"measurement": "blood glucose response to insulin alone", "setting": "female Zucker fa/fa rats [3]; female rats, 1 U/kg of bovine insulin iv", "value": "small decrease in blood glucose"}, {"measurement": "maximum reduction in blood glucose", "setting": "female Zucker fa/fa rats [3]; iv, insulin 1 U/kg + ISF402 1.5 mg/kg, or insulin alone at the same time point", "value": "0.68 ± 0.22", "unit": "mmol/L"}, {"measurement": "blood glucose response to insulin alone", "setting": "male Zucker fa/fa rats", "value": "no decrease at all"}, {"measurement": "blood glucose after insulin alone", "setting": "female Zucker fa/fa rats [5]", "value": "only a small reduction in blood glucose"}]}]}
